Experimental data from the supplement of paper PMC13380429.

Assays:
Settings in all cases: 72 h
Calu-3 [1] = experiment: drug sensitivity score (DSS) for viability; higher = more toxic; extreme values may be limits of the assay
Vero E6 [2] = experiment: as above
U2OS [3] = experiment: as above
HepG2 [4] = experiment: as above
Caco-2 [5] = experiment: as above
Vero E6 [6] = experiment: relative viability EC50 (midpoint between 100% and the lowest measured viability); higher = less toxic
Caco-2 [7] = experiment: as above
U2OS [8] = experiment: as above
HepG2 [9] = experiment: as above
Vero E6 [10] = experiment: cell viability relative to DMSO; higher = less toxic
Caco-2 [11] = experiment: as above
U2OS [12] = experiment: as above
HepG2 [13] = experiment: as above
Calu-3 [14] = experiment: as above

| SMILES | drug sensitivity score (Calu-3 [1]) | drug sensitivity score (Vero E6 [2]) | drug sensitivity score (U2OS [3]) | drug sensitivity score (HepG2 [4]) | drug sensitivity score (Caco-2 [5]) | relative viability EC50 (Vero E6 [6]) | relative viability EC50 (Caco-2 [7]) | relative viability EC50 (U2OS [8]) | relative viability EC50 (HepG2 [9]) | cell viability (Vero E6 [10]; 1 nM) | cell viability (Vero E6 [10]; 10 nM) | cell viability (Vero E6 [10]; 100 nM) | cell viability (Vero E6 [10]; 1000 nM) | cell viability (Vero E6 [10]; 10000 nM) | cell viability (Caco-2 [11]; 1 nM) | cell viability (Caco-2 [11]; 10 nM) | cell viability (Caco-2 [11]; 100 nM) | cell viability (Caco-2 [11]; 1000 nM) | cell viability (Caco-2 [11]; 10000 nM) | cell viability (U2OS [12]; 1 nM) | cell viability (U2OS [12]; 10 nM) | cell viability (U2OS [12]; 100 nM) | cell viability (U2OS [12]; 1000 nM) | cell viability (U2OS [12]; 10000 nM) | cell viability (HepG2 [13]; 1 nM) | cell viability (HepG2 [13]; 10 nM) | cell viability (HepG2 [13]; 100 nM) | cell viability (HepG2 [13]; 1000 nM) | cell viability (HepG2 [13]; 10000 nM) | cell viability (Calu-3 [14]; 1 nM) | cell viability (Calu-3 [14]; 10 nM) | cell viability (Calu-3 [14]; 100 nM) | cell viability (Calu-3 [14]; 1000 nM) | cell viability (Calu-3 [14]; 10000 nM) |
| --- | --- | --- | --- | --- | --- | --- | --- | --- | --- | --- | --- | --- | --- | --- | --- | --- | --- | --- | --- | --- | --- | --- | --- | --- | --- | --- | --- | --- | --- | --- | --- | --- | --- | --- |
| O=C(O)COC(=O)Cc1ccccc1Nc1c(Cl)cccc1Cl [aceclofenac] | 0 | 0 | 0 | 0 |  |  |  |  |  |  |  |  |  |  |  |  |  |  |  |  |  |  |  |  |  |  |  |  |  |  |  |  |  |  |
| CC(C)c1ccccc1S(=O)(=O)c1cc(N)c2ncccc2c1[N+](=O)[O-] |  | 0 | 0 | 0 | 0 | > 10 µM | > 10 µM | > 10 µM | > 10 µM | 98% | 103% | 107% | 102% | 100% | 98.7% | 102% | 99.1% | 97.3% | 89.8% | 99.7% | 102% | 96.3% | 98.5% | 93.7% | 100% | 95.8% | 100% | 89.9% | 110% |  |  |  |  |  |
| O=C(NO)c1ccc2[nH]c(=O)c(CCCc3ccccc3)nc2c1 [TCS-2210] | 4.3 | 0 | 2.4 | 4.1 | 0 | > 10 µM | > 10 µM |  | 2.44 µM | 87.5% | 96.1% | 89% | 98.4% | 101% | 94.2% | 95.8% | 101% | 94.8% | 96.4% | 99.1% | 96.3% | 102% | 94.4% | 66.8% | 108% | 96.5% | 100% | 94.7% | 39.9% | 136% | 93.7% | 98% | 78.4% | 62% |
| CCN1CCCC1CNC(=O)c1cc(S(N)(=O)=O)ccc1OC (stereo not drawn) [sulpiride] | 0 | 0 | 0 | 0 |  |  |  |  |  |  |  |  |  |  |  |  |  |  |  |  |  |  |  |  |  |  |  |  |  |  |  |  |  |  |
| CCCOc1ccc2[nH]c(NC(=O)OC)nc2c1 [oxibendazole] | 2.1 | 7.9 | 2.6 | 2.1 | 2.4 | 0.54 µM |  | 3.4 µM |  | 95.1% | 96.3% | 90.2% | 63.8% | 41.9% | 94.8% | 93.7% | 107% | 96.4% | 63.1% | 101% | 95.2% | 101% | 102% | 47.5% | 91.1% | 95.8% | 94.6% | 103% | 54.4% | 102% | 97.2% | 97.1% | 97.8% | 63% |
| COc1ccccc1N1CCN(CCCCNC(=O)c2ccc3ccccc3c2)CC1 [BP-897] | 0.8 | 0 | 0 | 0 |  |  |  |  |  |  |  |  |  |  |  |  |  |  |  |  |  |  |  |  |  |  |  |  |  |  |  |  |  |  |
| CNCc1ccc(-c2[nH]c3cc(F)cc4c3c2CCNC4=O)cc1 [rucaparib] |  | 0 | 0 | 1.1 | 0 | > 10 µM | > 10 µM | > 10 µM | > 10 µM | 96.4% | 99.9% | 96.1% | 93.7% | 93.3% | 94.7% | 91.2% | 97.4% | 94.5% | 89.6% | 101% | 93.4% | 98.7% | 102% | 106% | 98.8% | 109% | 95.5% | 92% | 78.7% |  |  |  |  |  |
| Oc1nc(-c2ccc(C(F)(F)F)cc2)nc2c1CSCC2 [XAV-939] | 2.7 | 2.4 | 0 | 0 | 0 |  | > 10 µM | > 10 µM | > 10 µM | 94.6% | 98.5% | 97% | 90.4% | 69.6% | 103% | 97% | 99.8% | 92.3% | 101% | 105% | 101% | 101% | 99.2% | 96.4% | 101% | 108% | 98.2% | 99.7% | 94.4% | 110% | 94% | 97.1% | 84.1% | 71.7% |
| CC(=O)O[C@]1(C(C)=O)CC[C@H]2[C@@H]3C=CC4=CC(=O)CC[C@]4(C)[C@H]3CC[C@@]21C [6,7-dehydro-17-acetoxy-progesterone] |  | 0 | 0 | 0 | 0 | > 10 µM | > 10 µM | > 10 µM | > 10 µM | 106% | 99.5% | 104% | 98.1% | 98.2% | 95.6% | 97.5% | 93.7% | 92.8% | 92.6% | 96.4% | 99.6% | 97.3% | 101% | 94.8% | 102% | 103% | 105% | 105% | 98% |  |  |  |  |  |
| CNC(=O)Oc1cccc2ccccc12 [carbaril] | 0 | 0 | 0 | 0 |  |  |  |  |  |  |  |  |  |  |  |  |  |  |  |  |  |  |  |  |  |  |  |  |  |  |  |  |  |  |
